Experimental findings from ChEMBL document CHEMBL1150004, “A general approach toward the design of mechanism-based inactivators of serine proteinases: inactivation of human leukocyte elastase by a phthalimide derivative” (Bioorg Med Chem Lett, 1993) are described below.

The assay has as its target T1, Neutrophil elastase (Homo sapiens) (UniProt P08246).
T1 sequence (whole entry): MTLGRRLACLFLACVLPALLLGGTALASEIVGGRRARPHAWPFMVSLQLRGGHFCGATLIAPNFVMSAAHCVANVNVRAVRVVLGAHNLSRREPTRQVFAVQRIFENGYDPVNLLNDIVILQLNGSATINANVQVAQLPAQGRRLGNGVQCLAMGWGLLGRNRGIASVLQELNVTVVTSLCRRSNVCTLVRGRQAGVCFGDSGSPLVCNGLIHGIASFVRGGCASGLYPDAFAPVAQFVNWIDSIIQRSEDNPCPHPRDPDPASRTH
The assay is described as follows: Bimolecular rate constant of the interaction of compound with Human Leukocyte Elastase was evaluated.

Turning to `CCOC(=O)C(F)N1C(=O)c2ccccc2C1=O` (stereo unspecified), the K obs / 1 came to 40 M⁻¹ s⁻¹.
